What was measured:
[1] = tested on: Olfr171-expressing neurons; test: pS6 immunolabeling with OR in situ hybridization after odorant exposure; parameters: species or system mouse; conditions: 5% odorant, 60 minutes, in vivo
Procedure: In order to independently validate the identity of an acetophenone receptor obtained with the RNAseq approach, the potential colocalization following acetophenone exposure of a neuronal activity marker (the phosphorylated ribosomal protein S6 (pS6) (Knight et al., 2012, Cell, 151, 1126-1137) and specific olfactory receptors were evaluated. To this aim, in-situ hybridizations were performed on sections of olfactory tissue with probes targeting receptor mRNAs followed by immunolabeling of pS6. The probes used were directed against the transcripts of most of the ORs determined as responsive including Olfr983 transcripts (encoding a known acetophenone receptor), Olfr171 transcripts (encoding a known ethyl isobutyrate receptor), and Olfr145 transcripts, encoding a newly identified receptor by RNAseq. Before analysis, mice were exposed to either 5% acetophenone, 5% ethyl isobutyrate, or a negative control condition for 60 minutes. […] 66% (Olfr983) and 70% (Olfr145) of the neurons were positive for pS6 after acetophenone exposure, while only 11% of the neurons expressing Olfr171 were positive for pS6 after exposure to this compound.

Olfr1377 [2] = conditions: expressed in HEK cells; previously shown; read-out: EC50 as agonist of Olfr1377; cited from earlier work
Olfr730 = biological target: T1, Olfr730 (Mus musculus, UniProt A0A0U1RNX7); test: OR transcript level by RT-qPCR after in vivo odorant exposure; conditions: 5% odorant, 5 hours
T1 construct: from tissue; host or cells: olfactory epithelium of adult C57BL/6 mice
T1 sequence (A0A0U1RNX7 1-317): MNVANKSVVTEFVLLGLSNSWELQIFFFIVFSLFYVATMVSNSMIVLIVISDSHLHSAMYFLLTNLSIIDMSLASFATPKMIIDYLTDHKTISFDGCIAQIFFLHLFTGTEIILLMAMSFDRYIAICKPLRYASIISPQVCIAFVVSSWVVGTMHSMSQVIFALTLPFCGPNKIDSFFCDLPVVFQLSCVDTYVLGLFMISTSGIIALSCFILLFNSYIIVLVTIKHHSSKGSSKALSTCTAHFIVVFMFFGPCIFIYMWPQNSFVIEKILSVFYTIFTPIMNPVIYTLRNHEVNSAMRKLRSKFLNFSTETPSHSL
Procedure: (§1) In vivo exposure to odorant: Starting 48 h before experiments, mice were habituated to pure DMSO on a cotton ball. 200 μl were pipetted directly onto the cotton and placed in the cage, replacing any cotton that was already in the cage for nest-making purposes.
On the day of the experiment, mice receiving odorants were transferred to a different room, where they were exposed to a cotton ball on which 200 μl of odorant diluted in pure DMSO were deposited. Exposures started in the morning between 8 and 10 am (that is two hours after lights were on) and mice were killed and dissected between 1 and 3 pm. […]
(§2) RNA concentrations were determined using an Amersham Ultrospec® 3100 Pro spectrophotometer, and RNA quality was evaluated with an Agilent Technologies 2100 Bioanalyzer®. […]
(§3) qPCR Ct values were analyzed using an in-house developed Microsoft Excel® macro file. […] Ct values were converted to quantities relative to the maximum for each given gene. Selected reference genes were then analyzed for variance using the geNorm algorithm. […]
Adult C57BL/6 mice were exposed to 5% acetophenone for 5 hours, and the level of transcripts of odorant receptors' genes were measured by RT-qPCR on extracts of olfactory epithelia from these mice, as described in the materials and methods section.

Olfr169 = test: OR transcript downregulation by RNAseq after in vivo exposure; parameters: species or system mouse; conditions: 5% odorant, 5 hours
Procedure: (§4) Animals were exposed to 5% acetophenone for 5 hours before RNA extraction (as previously described). cDNA libraries were generated with the Truseq RNA and DNA sample preparation kits after selection of polyA-containing mRNAs. Adapters for RNAseq multiplexing were added to the cDNAs. The cDNA libraries were sequenced with a HiSeq®2500 Sequencing system. 100 bp reads were mapped using Bowtie2 with a 28 bp seed. The differential gene expression analyses were performed with DESeq2. Because of the high sequence similarity between OR gene paralogs, some reads are mapped to multiple OR genes. These reads were removed from the analysis.
(§5) Mice (n=6) were exposed to 5% acetophenone or to a “neutral” control condition for 5 hours. An olfactory cDNA library corresponding to each animal was deep sequenced and the ratios of odorant receptor mRNA concentrations relative to controls were plotted (FIG. 3). […] Based on transcriptional downregulation levels observed by RNAseq following acetophenone exposure, a list of 26 candidate responsive ORs was determined (FIG. 3), that reached 74% decrease (Olfr145) or even over 80% (Olfr169) relative to controls. […] The transcript downregulation of 21 out of the 26 olfactory receptor candidates obtained by RNAseq was confirmed by qPCR.

Olfr1377 [3] = test: as above; parameters: species or system mouse; conditions: 5% odorant, 5 hours, reduction larger than 20% = downregulated
Procedure: as §4, §5

Olfr160 [4] = test: as above; parameters: species or system mouse; conditions: 5% odorant, 5 hours, reduction larger than 20% = downregulated
Procedure: as §4, §5

Olfr983 = test: as above; parameters: species or system mouse; conditions: 5% odorant, 5 hours, reduction larger than 20% = downregulated
Procedure: as §4, §5

Olfr160 [5] = test: OR transcript level by RT-qPCR after in vivo odorant exposure; parameters: species or system mouse; key to olfr160 candidate OR (RNAseq) confirmed by qPCR: The transcript downregulation of 21 out of the 26 olfactory receptor candidates obtained by RNAseq was confirmed by qPCR; false RNAseq positive candidates, namely OR candidates for which in fact mRNA was not downregulated following acetophenone exposure; conditions: for Olfr160 mRNA level relative to unexposed controls: 5% odorant, 5 hours, in vivo, RT-qPCR
Procedure: as §1
On the day of the experiment, mice receiving odorants were transferred to a different room, where they were exposed to a cotton ball on which 200 μl of odorant diluted in pure DMSO were deposited. Exposures started in the morning between 8 and 10 am (that is two hours after lights were on) and mice were killed and dissected between 1 and 3 pm. […] If a number of different odorants were tested in the same experiment, a different overpressurized room would always be used for each odorant to avoid odor cross-contamination.
After odorant exposure, mice were killed by cervical dislocation and immediately decapitated. The main olfactory epithelia (MOE), were harvested in their entirety and transferred to a tube containing 600 μl of lysis buffer and β-mercaptoethanol (RNAeasy kit, Qiagen, following the manufacturer protocol) and a 0.5 cm diameter steel ball, and then put on ice. Samples were then homogenized using a FastPrep®-24 instrument (MP Biomedicals) at 6 m/s for 30 s and left on ice. RNA extraction was performed on all samples in parallel using the Qiagen RNeasy Mini® kit following the manufacturer's instructions. Two DNase treatments were performed on all samples: first using the Qiagen RNase-Free DNase Set® and then using the Life Technologies Ambion DNase I® kit. RNA samples were then aliquoted and stored at −80° C.
as §2, §3

CC(=O)c1ccccc1 [acetophenone]
fraction of Olfr171-expressing neurons positive for pS6 [1]: 11% | EC50 (Olfr1377 [2]): < 50 µM | Olfr730 mRNA concentration increase, fold change (Olfr730): 1.4 fold | Olfr169 transcript decrease relative to controls (RNAseq) (Olfr169): over 80% | Olfr1377 transcript modulation (RNAseq) (Olfr1377 [3]): downregulated | Olfr160 transcript modulation (RNAseq) (Olfr160 [4]): downregulated | Olfr983 transcript modulation (RNAseq) (Olfr983): downregulated | olfr160 candidate OR (RNAseq) confirmed by qPCR (Olfr160 [5]; 5% acetophenone exposure): y | Olfr160 mRNA level relative to unexposed controls (Olfr160 [5]): decrease | Olfr160 mRNA level relative to unexposed controls (Olfr160 [5]; listed as Acetophenone): downregulates

Reference: patent US10473645B2, “Methods for identifying a receptor for a ligand and uses thereof” (UNIVERSITE DE GENEVE, priority 2014, dated 2019)
